Experimental data from patent US11572399B2, “Long-acting GIP peptide analogues” (University of Copenhagen, priority 2017, dated 2023).
Peptide text beside a SMILES is read from it. * marks the point of attachment. C16 diacid = O=C(O)CCCCCCCCCCCCCCC(=O)*; Stearoyl = CCCCCCCCCCCCCCCCCC(=O)*

What was measured:
human GIP receptor [1] = biological target: T1, human GIP receptor (Homo sapiens, UniProt P48546); assay: cAMP accumulation assay, antagonism of a GIP-mediated cAMP response (50-80% of max); format: cell-based; details: for cAMP - antagonisme fold (paired): fold vs GIP(3-30)NH2, Table 3b; for Fold change of IC50 versus GIP(5-30)NH2: fold change of IC50 from GIP(5-30)NH2
T1 construct: host or cells: COS-7, transient transfection (calcium phosphate), cDNA in pCMV-Script
T1 sequence (P48546 22-466): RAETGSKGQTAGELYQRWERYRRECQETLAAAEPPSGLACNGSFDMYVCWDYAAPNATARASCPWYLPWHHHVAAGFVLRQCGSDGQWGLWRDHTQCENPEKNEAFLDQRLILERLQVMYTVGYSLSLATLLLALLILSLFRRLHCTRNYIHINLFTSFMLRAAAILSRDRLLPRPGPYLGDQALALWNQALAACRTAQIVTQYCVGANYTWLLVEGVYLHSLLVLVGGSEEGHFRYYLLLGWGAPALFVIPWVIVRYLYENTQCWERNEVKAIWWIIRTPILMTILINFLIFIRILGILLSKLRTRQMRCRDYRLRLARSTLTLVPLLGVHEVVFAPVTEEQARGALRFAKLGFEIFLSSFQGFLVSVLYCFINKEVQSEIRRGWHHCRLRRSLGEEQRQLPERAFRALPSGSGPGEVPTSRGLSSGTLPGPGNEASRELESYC
Description: The day after, the cells were washed twice with Hepes buffered saline (HBS) buffer and incubated with HBS and 1 mM 3-isobutyl-1-methylxanthine (IBMX) for 30 min at 37° C. […] The HitHunter™ cAMP XS assay (DiscoveRx) was carried out according to the manufacturer's instructions.

human GIP receptor [2] = biological target: T1, human GIP receptor; assay: cAMP accumulation assay, agonism (ligand alone); format: cell-based; details: COS-7 cells, Table 1; for Emax: COS-7, intrinsic cAMP activity
human GIP receptor [3] = biological target: T1, human GIP receptor; assay: 125I-human GIP competition binding assay, in the presence and absence of 2% HSA; details: for Binding fold (paired): fold decrease in affinity compared to GIP(3-30)NH2; for Fold change in affinity, IC50 (plus HSA)/IC50 (minus HSA): presence vs absence of 2% HSA, proxy for albumin binding; for Fold change HSA (2%)/Casein (0.1%): IC50 (plus HSA)/IC50 (minus HSA); for Binding (+/−HSA) Fold: fold change +HSA/−HSA; for Ki: presence of 2% HSA;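 for all read-outs here: nonspecific binding taken as radioligand bound to untransfected cells, IC50 obtained from nonlinear regression fits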
[4] = transiently transfected COS-7 cells, Table 1 and text, read-out: cAMP antagonism nM (IC50, antagonistic potency)
[5] = 0.1% casein, no HSA, Table 3b, read-out: Binding logIC50 0.1% casein (converted)
[6] = Table 3b, initial data, read-out: Binding IC50
[7] = heterologous competition binding, transiently transfected COS-7 cells expressing the human GIP receptor, read-out: Binding
[8] = binding in 0.1% casein (absence of HSA), log value, read-out: logIC50 0.1% casein (converted)
[9] = binding in presence of 2% HSA, read-out: logIC50 2% HSA (converted)

SMILES	cAMP - antagonisme fold (paired) (human GIP receptor [1]) [fold]	IC50 (human GIP receptor [1]; [4]) [nM]	Emax (human GIP receptor [2]) [%]	IC50 (human GIP receptor [3]; [5]) [nM]	IC50 (human GIP receptor [3]; 2% HSA, Table 3b, read-out: Binding logIC50 2% HSA (converted)) [nM]	IC50 (human GIP receptor [3]; [6]) [nM]	Binding fold (paired) (human GIP receptor [3]; Table 3b) [fold]	Fold change in affinity, IC50 (plus HSA)/IC50 (minus HSA) (human GIP receptor [3]) [fold]	EC50 (human GIP receptor [2]; read-out: cAMP agonism nM (EC50)) [nM]	IC50 (human GIP receptor [3]; [7]) [nM]	Fold change of IC50 versus GIP(5-30)NH2 (human GIP receptor [1])	Fold change HSA (2%)/Casein (0.1%) (human GIP receptor [3])	IC50 (human GIP receptor [3]; [8]) [nM]	IC50 (human GIP receptor [3]; [9]) [nM]	Binding (+/−HSA) Fold (human GIP receptor [3])	Ki (human GIP receptor [3]) [nM]	IC50 (human GIP receptor [1]; antagonism of GIP-mediated cAMP response, COS-7 cells, read-out: cAMP accumulation IC50) [nM]
CC[C@H](C)[C@H](NC(=O)[C@H](CO)NC(=O)[C@H](Cc1ccc(O)cc1)NC(=O)[C@H](CC(=O)O)NC(=O)[C@H](CO)NC(=O)[C@@H](NC(=O)[C@H](Cc1ccccc1)NC(=O)[C@@H](NC(=O)CNC(=O)[C@@H](N)CCC(=O)O)[C@@H](C)O)[C@@H](C)CC)C(=O)N[C@@H](C)C(=O)N[C@@H](CCSC)C(=O)N[C@@H](CC(=O)O)C(=O)N[C@@H](CCCCN)C(=O)N[C@H](C(=O)N[C@@H](CCCCNC(=O)CCCCCCCCCCCCCCC(=O)O)C(=O)N[C@@H](CCC(N)=O)C(=O)N[C@@H](CCC(N)=O)C(=O)N[C@@H](CC(=O)O)C(=O)N[C@@H](Cc1ccccc1)C(=O)N[C@H](C(=O)N[C@@H](CC(N)=O)C(=O)N[C@@H](Cc1c[nH]c2ccccc12)C(=O)N[C@@H](CC(C)C)C(=O)N[C@@H](CC(C)C)C(=O)N[C@@H](C)C(=O)N[C@@H](CCC(N)=O)C(=O)N[C@@H](CCCCN)C(N)=O)C(C)C)[C@@H](C)CC [AT158, [hGIP(3-30)NH2[H18K]-C16diacid/18]] (H-EGTFISDYSIAMDKIK(C16 diacid)QQDFVNWLLAQK-NH2; N-terminus assumed)	0.1	5	6	7.9	16	7.9	1	2.0	–	–	–	–	–	–	–	–	–
CCCCCCCCCCCCCCCCCC(=O)NCCCC[C@H](NC(=O)[C@@H](NC(=O)[C@H](CCCCN)NC(=O)[C@H](CC(=O)O)NC(=O)[C@H](CCSC)NC(=O)[C@H](C)NC(=O)[C@@H](NC(=O)[C@H](CO)NC(=O)[C@H](Cc1ccc(O)cc1)NC(=O)[C@H](CC(=O)O)NC(=O)[C@H](CO)NC(=O)[C@@H](NC(=O)[C@H](Cc1ccccc1)NC(=O)[C@@H](NC(=O)CNC(=O)[C@@H](N)CCC(=O)O)[C@@H](C)O)[C@@H](C)CC)[C@@H](C)CC)[C@@H](C)CC)C(=O)N[C@@H](CCC(N)=O)C(=O)N[C@@H](CCC(N)=O)C(=O)N[C@@H](CC(=O)O)C(=O)N[C@@H](Cc1ccccc1)C(=O)N[C@H](C(=O)N[C@@H](CC(N)=O)C(=O)N[C@@H](Cc1c[nH]c2ccccc12)C(=O)N[C@@H](CC(C)C)C(=O)N[C@@H](CC(C)C)C(=O)N[C@@H](C)C(=O)N[C@@H](CCC(N)=O)C(=O)N[C@@H](CCCCN)C(N)=O)C(C)C [AT160, [hGIP(3-30)NH2[H18K]-C18/18]] (H-EGTFISDYSIAMDKIK(Stearoyl)QQDFVNWLLAQK-NH2; N-terminus assumed)	0.7	38	13	48.8	–	48.8	6	3.6	962	49	–	–	–	–	–	–	–
CC[C@H](C)[C@H](NC(=O)[C@H](CO)NC(=O)[C@H](Cc1ccc(O)cc1)NC(=O)[C@H](CC(=O)O)NC(=O)[C@H](CO)NC(=O)[C@@H](NC(=O)[C@H](CCCCNC(=O)CCCCCCCCCCCCCCC(=O)O)NC(=O)[C@@H](N)[C@@H](C)O)[C@@H](C)CC)C(=O)N[C@@H](C)C(=O)N[C@@H](CCSC)C(=O)N[C@@H](CC(=O)O)C(=O)N[C@@H](CCCCN)C(=O)N[C@H](C(=O)N[C@@H](Cc1c[nH]cn1)C(=O)N[C@@H](CCC(N)=O)C(=O)N[C@@H](CCC(N)=O)C(=O)N[C@@H](CC(=O)O)C(=O)N[C@@H](Cc1ccccc1)C(=O)N[C@H](C(=O)N[C@@H](CC(N)=O)C(=O)N[C@@H](Cc1c[nH]c2ccccc12)C(=O)N[C@@H](CC(C)C)C(=O)N[C@@H](CC(C)C)C(=O)N[C@@H](C)C(=O)N[C@@H](CCC(N)=O)C(=O)N[C@@H](CCCCN)C(N)=O)C(C)C)[C@@H](C)CC [AT168, [hGIP(5-30)NH2[F6K]-C16diacid/6]]	–	–	0	–	–	–	–	–	–	48	5.3	2.0	50.1	100	2.3	–	–
CC[C@H](C)[C@H](NC(=O)[C@H](CO)NC(=O)[C@H](Cc1ccc(O)cc1)NC(=O)[C@H](CC(=O)O)NC(=O)[C@H](CO)NC(=O)[C@H](CCCCNC(=O)CCCCCCCCCCCCCCC(=O)O)NC(=O)[C@H](Cc1ccccc1)NC(=O)[C@@H](N)[C@@H](C)O)C(=O)N[C@@H](C)C(=O)N[C@@H](CCSC)C(=O)N[C@@H](CC(=O)O)C(=O)N[C@@H](CCCCN)C(=O)N[C@H](C(=O)N[C@@H](Cc1c[nH]cn1)C(=O)N[C@@H](CCC(N)=O)C(=O)N[C@@H](CCC(N)=O)C(=O)N[C@@H](CC(=O)O)C(=O)N[C@@H](Cc1ccccc1)C(=O)N[C@H](C(=O)N[C@@H](CC(N)=O)C(=O)N[C@@H](Cc1c[nH]c2ccccc12)C(=O)N[C@@H](CC(C)C)C(=O)N[C@@H](CC(C)C)C(=O)N[C@@H](C)C(=O)N[C@@H](CCC(N)=O)C(=O)N[C@@H](CCCCN)C(N)=O)C(C)C)[C@@H](C)CC [AT169, [hGIP(5-30)NH2[I7K]-C16diacid/7]]	–	37	0	–	–	–	–	5.8	–	28	3.0	5.8	31.6	166	4.8	126	–
CC[C@H](C)[C@H](NC(=O)[C@H](CO)NC(=O)[C@H](Cc1ccc(O)cc1)NC(=O)[C@H](CC(=O)O)NC(=O)[C@H](CCCCNC(=O)CCCCCCCCCCCCCCC(=O)O)NC(=O)[C@@H](NC(=O)[C@H](Cc1ccccc1)NC(=O)[C@@H](N)[C@@H](C)O)[C@@H](C)CC)C(=O)N[C@@H](C)C(=O)N[C@@H](CCSC)C(=O)N[C@@H](CC(=O)O)C(=O)N[C@@H](CCCCN)C(=O)N[C@H](C(=O)N[C@@H](Cc1c[nH]cn1)C(=O)N[C@@H](CCC(N)=O)C(=O)N[C@@H](CCC(N)=O)C(=O)N[C@@H](CC(=O)O)C(=O)N[C@@H](Cc1ccccc1)C(=O)N[C@H](C(=O)N[C@@H](CC(N)=O)C(=O)N[C@@H](Cc1c[nH]c2ccccc12)C(=O)N[C@@H](CC(C)C)C(=O)N[C@@H](CC(C)C)C(=O)N[C@@H](C)C(=O)N[C@@H](CCC(N)=O)C(=O)N[C@@H](CCCCN)C(N)=O)C(C)C)[C@@H](C)CC [AT170, [hGIP(5-30)NH2[S8K]-C16diacid/8]] (H-TFIK(C16 diacid)DYSIAMDKIHQQDFVNWLLAQK-NH2; N-terminus assumed)	–	–	0	–	–	–	–	–	–	–	32.4	2.2	631	–	2.2	1300	–
CC[C@H](C)[C@H](NC(=O)[C@H](CO)NC(=O)[C@H](Cc1ccc(O)cc1)NC(=O)[C@H](CCCCNC(=O)CCCCCCCCCCCCCCC(=O)O)NC(=O)[C@H](CO)NC(=O)[C@@H](NC(=O)[C@H](Cc1ccccc1)NC(=O)[C@@H](N)[C@@H](C)O)[C@@H](C)CC)C(=O)N[C@@H](C)C(=O)N[C@@H](CCSC)C(=O)N[C@@H](CC(=O)O)C(=O)N[C@@H](CCCCN)C(=O)N[C@H](C(=O)N[C@@H](Cc1c[nH]cn1)C(=O)N[C@@H](CCC(N)=O)C(=O)N[C@@H](CCC(N)=O)C(=O)N[C@@H](CC(=O)O)C(=O)N[C@@H](Cc1ccccc1)C(=O)N[C@H](C(=O)N[C@@H](CC(N)=O)C(=O)N[C@@H](Cc1c[nH]c2ccccc12)C(=O)N[C@@H](CC(C)C)C(=O)N[C@@H](CC(C)C)C(=O)N[C@@H](C)C(=O)N[C@@H](CCC(N)=O)C(=O)N[C@@H](CCCCN)C(N)=O)C(C)C)[C@@H](C)CC [AT171, [hGIP(5-30)NH2[D9K]-C16diacid/9]] (H-TFISK(C16 diacid)YSIAMDKIHQQDFVNWLLAQK-NH2; N-terminus assumed)	–	35	0	–	–	–	–	8.3	–	–	1.1	8.3	79.4	–	6.3	–	31.6
